According to US9994594B2, “Inhibitors of arginase and their therapeutic applications” (MARS, INCORPORATED, priority 2010, dated 2018):
Where a name gives a salt, the structure may show the parent alone. Read-outs that look alike come from different tables or passages of the source.

Tests used:
human arginase I (ARG I) = target: T1, human arginase I (ARG I) (Homo sapiens, UniProt P05089); assay: Inhibition of arginase I, spectrophotometric urea assay at 530 nm; format: biochemical
T1 sequence (P05089 1-322): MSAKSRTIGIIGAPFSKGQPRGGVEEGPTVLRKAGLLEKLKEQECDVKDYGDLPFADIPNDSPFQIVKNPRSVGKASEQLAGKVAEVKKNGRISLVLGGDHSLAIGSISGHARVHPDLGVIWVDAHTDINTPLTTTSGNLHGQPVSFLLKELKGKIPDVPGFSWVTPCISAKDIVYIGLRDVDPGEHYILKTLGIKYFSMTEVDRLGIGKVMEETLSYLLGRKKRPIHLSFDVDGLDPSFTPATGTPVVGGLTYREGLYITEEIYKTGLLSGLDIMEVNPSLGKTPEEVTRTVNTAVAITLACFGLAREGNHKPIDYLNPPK
Method: (§1) The assay established the concentration of inhibitor that is required to reduce arginase activity by 50% (IC50).
(§2) Inhibition of arginase I (ARG I) and arginase II (ARG II) by Formula I and Formula II compounds is followed spectrophotometrically at 530 nm. The compound to be tested is dissolved in DMSO at an initial concentration 50-fold greater than its final concentration in the cuvette. 10 μl of the stock solution is diluted in 90 μl of the assay buffer that comprises 0.1M sodium phosphate buffer containing 130 mM NaCl, pH 7.4, to which is added ovalbumin (OVA) at a concentration of 1 mg/ml. Solutions of arginase I and II are prepared in 100 mM sodium phosphate buffer, pH 7.4 containing 1 mg/ml of OVA to give an arginase stock solution at a final concentration of 100 ng/ml.
(§3) To each well of a 96-well microtiter plate is add 40 μl of enzyme, 10 μl of an inventive compound and 10 μl of enzyme substrate (L-arginine+manganese sulfate). For wells that are used as positive controls, only the enzyme and its substrate are added, while wells used as negative controls contain only manganese sulfate.
(§4) After incubating the microtiter plate at 37° C. for 60 minutes, 150 μl of a urea reagent obtained by combining equal proportions (1:1) of reagents A and B is added to each well of the microtiter plate to stop the reaction. The urea reagent is made just before use by combining Reagent A (10 mM o-phthaldialdehyde, and 0.4% polyoxyethylene (23) lauryl ether (w/v) in 1.8 M sulfuric acid) with Reagent B (1.3 mM primaquine diphosphate, 0.4% polyoxyethylene (23) lauryl ether (w/v), 130 mM boric acid in 3.6 M sulfuric acid). After quenching the reaction mixture, the microtiter plate is allowed to stand for an additional 10 minutes at room temperature to allow color development. The inhibition of arginase is computed by measuring the optical density (OD) of the reaction mixture at 530 nm and normalizing the OD value to percent inhibition observed in the control. The normalized OD is then used to generate a dose-response curve by plotting the normalized OD values against log [concentration] and using regression analysis to compute the IC50 values.

arginase II (ARG II) = target: T2, arginase II (ARG II) (Homo sapiens, UniProt P78540); assay: Inhibition of arginase II, spectrophotometric urea assay at 530 nm; format: biochemical
T2 sequence (P78540 23-354): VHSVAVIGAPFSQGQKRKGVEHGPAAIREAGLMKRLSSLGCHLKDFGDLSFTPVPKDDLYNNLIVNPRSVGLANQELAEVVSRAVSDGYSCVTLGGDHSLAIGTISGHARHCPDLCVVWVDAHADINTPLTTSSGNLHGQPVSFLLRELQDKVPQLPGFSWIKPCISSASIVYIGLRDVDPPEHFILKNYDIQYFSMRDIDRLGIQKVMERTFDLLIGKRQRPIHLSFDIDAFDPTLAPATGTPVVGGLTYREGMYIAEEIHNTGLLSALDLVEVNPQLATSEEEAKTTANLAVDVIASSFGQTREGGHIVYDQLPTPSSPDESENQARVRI
Method: as §1, §2, §3, §4

[1] = Formula I compounds, Table 2, read-out: Potency (ARG I)
[2] = Formula I compounds, Table 2, read-out: Potency (ARG II)
[3] = Formula II compounds, Table 2-A, read-out: Potency (ARG I)
[4] = Formula II compounds, Table 2-A, read-out: Potency (ARG)

Compound | IC50 (arginase II (ARG II); [2]) [µM] | IC50 (human arginase I (ARG I); [3]) [µM] | IC50 (arginase II (ARG II); [4]) [µM] | other results
NC(CCCCB(O)O)(CCNC1CCCC1)C(=O)O (stereo not shown) [compound 72, 2-amino-6-borono-2-(2-(cyclopentylamino)ethyl)hexanoic acid dihydrochloride] | 0.251 to 1 | – | – | IC50 (human arginase I (ARG I); [1]): 0.251 to 1 µM
NC(CCCCB(O)O)(CCCOc1ccc(Cl)cc1)C(=O)O (stereo not shown) [compound 96, 2-Amino-6-borono-2-[3-(4-chlorophenoxy)-propyl]-hexanoic acid hydrochloride] | 1 to 2 | – | – | IC50 (human arginase I (ARG I); [1]): 1 to 2 µM
CC1(C)CCN(CCC(N)(CCCCB(O)O)C(=O)O)CC1 (stereo not shown) [compound 128, 2-amino-6-borono-2-(2-(4,4-dimethylpiperidin-1-yl)ethyl)hexanoic acid dihydrochloride] | 1 to 2 | – | – | IC50 (human arginase I (ARG I); [1]): 0.251 to 1 µM
NC(CCCCB(O)O)(C(=O)O)[C@H]1C[C@@H](NCc2cc3c(cc2Cl)OCO3)C1 (stereo partly drawn) [Example 78-A, cis-2-amino-6-borono-2-(3-((6-chlorobenzo[d][1,3]dioxol-5-yl)methylamino)cyclobutyl)hexanoic acid dihydrochloride] | – | 0.0001 to 0.25 | 0.0001 to 0.25 | –
CC(=O)C1(c2ccccc2)CCN(CCC(N)(CCCCB(O)O)C(=O)O)CC1 (stereo not shown) [compound 45, 2-(2-(4-acetyl-4-phenylpiperidin-1-yl)ethyl)-2-amino-6-boronohexanoic acid dihydrochloride] | – | – | – | IC50 (human arginase I (ARG I)): 1 to 2 µM; IC50 (arginase II (ARG II)): 2 to 5 µM
Cc1cc(CN2CCC(C(N)(CCCCB(O)O)C(=O)O)CC2)n(C)n1 (stereo not shown) [Example 62-A, 2-amino-6-borono-2-(1-((1,3-dimethyl-1H-pyrazol-5-yl)methyl)piperidin-4-yl)hexanoic acid dihydrochloride] | – | 0.251 to 1 | 0.251 to 1 | –
COc1ccc(CCN(C)CC[C@](N)(CCCCB(O)O)C(=O)O)cc1OC [compound 6, (R)-2-amino-6-borono-2-(2-((3,4-dimethoxyphenethyl)(methyl)amino)ethyl)hexanoic acid dihydrochloride] | 1 to 2 | – | – | IC50 (human arginase I (ARG I); [1]): 0.251 to 1 µM
CC(C)CN[C@H]1C[C@@H](C(N)(CCCCB(O)O)C(=O)O)C1 (stereo partly drawn) [Example 83-A, cis-2-amino-6-borono-2-(3-(isobutylamino)cyclobutyl)hexanoic acid dihydrochloride] | – | 0.0001 to 0.25 | 0.0001 to 0.25 | –
NC(CCCCB(O)O)(C(=O)O)C1CCN(C(=S)Nc2ccc(Cl)cc2)C1 [35-A, 2-amino-6-borono-2-((S)-1-(4-chlorophenylcarbamothioyl)-pyrrolidin-3-yl)hexanoic acid hydrochloride] | – | 0.251 to 1 | 0.251 to 1 | –
NC(CCCCB(O)O)(C(=O)O)C1CCNCC1 (stereo not shown) [Example 88-A, 2-amino-6-borono-2-(piperidin-4-yl)hexanoic acid dihydrochloride] | – | 0.251 to 1 | 0.251 to 1 | –
NC(CCCCB(O)O)(CCN1CCCC1)C(=O)O (stereo not shown) [compound 16, 2-amino-6-borono-2-(2-(pyrrolidin-1-yl)ethyl)hexanoic acid] | 1 to 2 | – | – | IC50 (human arginase I (ARG I); [1]): 0.251 to 1 µM
NC(CCCCB(O)O)(C(=O)O)C1CCN(Cc2cc3c(cc2Cl)OCO3)CC1 (stereo not shown) [Example 91-A, 2-amino-6-borono-2-(1-((6-chlorobenzo[d][1,3]dioxol-5-yl)methyl)piperidin-4-yl)hexanoic acid dihydrochloride] | – | 0.0001 to 0.25 | 0.251 to 1 | –
NC(CCCCB(O)O)(C(=O)O)C1CCN(c2nc3ccc(Cl)cc3s2)CC1 (stereo not shown) [11-A, 2-amino-6-borono-2-[(6-chlorobenzothiazol-2-yl)-piperidin-4-yl)-hexanoic acid dihydrochloride] | – | 0.251 to 1 | 0.251 to 1 | –
NC(CCCCB(O)O)(C(=O)O)C1CCN(Cc2ccc(OC(F)(F)F)cc2)CC1 (stereo not shown) [Example 100-A, 2-amino-6-borono-2-(1-(4-(trifluoromethoxy)benzyl)piperidin-4-yl)hexanoic acid dihydrochloride] | – | 0.0001 to 0.25 | 0.0001 to 0.25 | –
NC(CCCCB(O)O)(C(=O)O)C(O)C1CCCNC1 (stereo not shown) [compound 110, 2-amino-6-borono-2-(hydroxy(piperidin-3-yl)methyl)hexanoic acid dihydrochloride] | 2 to 5 | – | – | IC50 (human arginase I (ARG I); [1]): 1 to 2 µM
NC(CCCCB(O)O)(CCN1CCC(C(=O)O)CC1)C(=O)O (stereo not shown) [compound 21, 1-(3-amino-7-borono-3-carboxyheptyl)piperidine-4-carboxylic acid] | 1 to 2 | – | – | IC50 (human arginase I (ARG I); [1]): 1 to 2 µM

Compound | IC50 (arginase II (ARG II); [2]) [µM] | IC50 (human arginase I (ARG I); [3]) [µM] | IC50 (arginase II (ARG II); [4]) [µM] | other results
N[C@H]1CC[C@@H]([C@@](N)(CCCCB(O)O)C(=O)O)C1 [17-A, (S)-2-amino-2-((1R,3S)-3-aminocyclopentyl)-6-boronohexanoic acid dihydrochloride] | – | 0.0001 to 0.25 | 0.0001 to 0.25 | –
NC(CCCCB(O)O)(C(=O)O)C1CCCNCC1 (stereo not shown) [Example 72-A, 2-amino-2-(azepan-4-yl)-6-boronohexanoic acid dihydrochloride] | – | 0.0001 to 0.25 | 0.251 to 1 | –
CC(C)C(N)(CCCCB(O)O)C(=O)O (stereo not shown) [compound 105, 2-amino-6-borono-2-isopropylhexanoic acid hydrochloride] | > 5 | – | – | –
NC(CCCCB(O)O)(CCC1Cc2ccccc2CN1)C(=O)O (stereo not shown) [compound 131, 2-amino-6-borono-2-(2-(1,2,3,4-tetrahydroisoquinolin-3-yl)ethyl)hexanoic acid dihydrochloride] | – | – | – | IC50 (human arginase I (ARG I); [1]): 0.251 to 1 µM
O=C(O)C1(CCCCB(O)O)CCCN1 (stereo not shown) [compound 103, 2-(4-boronobutyl)pyrrolidine-2-carboxylic acid hydrochloride] | > 5 | – | – | –
COCCCC(N)(CCCCB(O)O)C(=O)O (stereo not shown) [compound 100, 2-amino-6-borono-2-(3-methoxypropyl)hexanoic acid hydrochloride] | > 5 | – | – | –
NC(CCCCB(O)O)(Cc1cccc(F)c1)C(=O)O (stereo not shown) [compound 98, 2-amino-6-borono-2-(3-fluorobenzyl)hexanoic acid hydrochloride] | > 5 | – | – | –
CC(C)CC(N)(CCCCB(O)O)C(=O)O (stereo not shown) [compound 104, 2-amino-6-borono-2-isobutylhexanoic acid hydrochloride] | > 5 | – | – | –
NC(CCCCB(O)O)(CN1CCOCC1)C(=O)O (stereo not shown) [compound 81, 2-amino-6-borono-2-(morpholinomethyl)hexanoic acid dihydrochloride] | > 5 | – | – | –
CN1CCN(CCC(N)(CCCCB(O)O)C(=O)O)CC1 (stereo not shown) [compound 35, 2-amino-6-borono-2-(2-(4-methylpiperazin-1-yl)ethyl)hexanoic acid trihydrochloride] | 2 to 5 | – | – | –
NC(CCCCB(O)O)(Cc1ccccc1)C(=O)O (stereo not shown) [compound 99, 2-amino-2-benzyl-6-boronohexanoic acid hydrochloride] | > 5 | – | – | –
NC(CCCO)(CCCCB(O)O)C(=O)O (stereo not shown) [compound 101, 2-amino-6-borono-2-(3-hydroxypropyl)hexanoic acid hydrochloride] | – | – | – | IC50 (human arginase I (ARG I); [1]): 2 to 5 µM
NC(CCCCB(O)O)(CCN1CCOCC1)C(=O)O (stereo not shown) [compound 24, 2-amino-6-borono-2-(2-morpholinoethyl)hexanoic acid] | 2 to 5 | – | – | –
NC(CO)(CCCCB(O)O)C(=O)O (stereo not shown) [compound 82, 2-amino-6-borono-2-(hydroxymethyl)hexanoic acid hydrochloride] | 2 to 5 | – | – | –
NC(CCCCB(O)O)(CCN1CCNCC1)C(=O)O (stereo not shown) [compound 32, 2-amino-6-borono-2-(2-(piperazin-1-yl)ethyl)hexanoic acid trihydrochloride] | 2 to 5 | – | – | –
